Laboratory results published in patent publication US4782092A, “5,8-dichloro-4-hydroxy-1-[(aminoalkyl) amino]-9,10-anthracenediones, pharmaceutical compositions and use” (Mid-America Cancer Center, priority 1986, dated 1988).
“And” between values parts separate entries of the source, which are not always exact repeats. Identical values can stand only once. Like-named read-outs stand apart in the source and are kept apart here.

Assays:
L1210 Leukemia = test: growth-inhibitory effects against mouse tumor line L1210 in suspension cell culture; assay type: cell-based; settings: L1210, 72 h
Experimental: In another test protocol, growth-inhibitory effects are measured against the mouse tumor line L1210 in suspension cell culture. Cell cultures were initiated at a density of 50,000 cells/ml in medium RPMI […] supplemented with 10 percent fetal calf serum. Composition of this culture medium and details of the culture procedure follow the published method (Journal of the National Cancer Institute 36, 405-415, 1966). Cultures are maintained at 37 degrees in stationary suspension culture under a 95 percent air +5 percent CO2 atmosphere. Test compounds are added to treated cultures at the time of initiation, and are present continually. After 72 hours, 40-fold dilutions of drug-treated and untreated control cultures are prepared in 0.9 percent NaCl solution, and cells are counted on an electronic particle counter. The growth-inhibitory effects are expressed as ID50 values, namely test compound inhibitory dosages or concentrations required to decrease cell count in treated cultures to 50 percent of the cell count of untreated control cultures.

P388 Leukemia = test: in vivo lymphocytic leukemia P388 test; parameters: species or system mice (CD2 F1); settings: IP/IP, QOID × 5
Experimental: Another test protocol is the in vivo lymphocytic leukemia P388 test. The animals used are either male or female CD2 F1 mice, six or seven animals per test group. The tumor transplant is by intraperitoneal injection of dilute ascitic fluid containing cells of lymphocytic leukemia P388. The test compounds are administered intraperitoneally once daily for five consecutive days at various doses following tumor inoculation. The animals are weighed and survivors are recorded on a regular basis for 30 days. A compound is designated "toxic" if, at a given dose, all animals died prior to four days after the first injection of drug. A ratio of survival time for treated (T)/control (C) animals is calculated. A criterion for efficacy is a ratio T/C times 100 greater than or equal to 125. See Cancer Chemotherapy Reports, Part 3, 3, 1 (1972) for a comprehensive discussion of the protocol.

Escherichia coli PD08463 = test: in vitro antibacterial/antifungal (ABF) agar-disk diffusion assay, Escherichia coli PD08463; assay type: cell-based; settings: 5.0 mg/ml, read-out: Inhibition Zone Diameter
Experimental: (§1) One test protocol is the in vitro antibacterial/antifungal (ABF) test. Compounds are tested for antimicrobial activity in an agar-disk diffusion assay, a standard microbiological technique for testing antibiotics. After incubation of each culture with a test compound, a zone of inhibition is determined. The zone diameter (mm) of active compounds ranges from a minimum of 14 mm to as high as 18 mm, with a greater diameter reflecting higher activity. For convenience, values are reported for three gram-negative bacterial species, Alcaligenes viscolactis ATCC 21698, Escherichia coli Tol and PD04863, Branhamella catarrhalis PD03596; and one gram-positive bacterium, Bacillus subtilis PD04555.

[1] = test system: Branhamella catarrhalis PD03596; test: in vitro antibacterial/antifungal (ABF) agar-disk diffusion assay, Branhamella catarrhalis; assay type: cell-based; settings: Moraxella catarrhalis, 5.0 mg/ml, read-out: Inhibition Zone Diameter
Experimental: as §1

[2] = test system: Alcaligenes viscolactis (ATCC-21698); test: in vitro antibacterial/antifungal (ABF) agar-disk diffusion assay, Alcaligenes viscolactis; assay type: cell-based; settings: read-out: Inhibition Zone Diameter
Experimental: as §1

B16 Melanoma = test: solid tumor B16 melanoma in mice; assay type: in vivo, mice (B6C3F1); settings: IP/IP, QOID × 9
Experimental: Another test protocol utilizes the solid tumor B16 melanoma in mice. The tumor is inoculated by intraperitoneal injection. The test compounds are administered intraperitoneally once daily for nine consecutive days at various doses following tumor inoculation. A ratio of survival time for treated (T)/control (C) animals is calculated. A criterion for efficacy is a ratio T/C times 100 greater than or equal to […]. See Cancer Therapy Reviews, 7,167(1980) and references cited therein for further details and interpretation of the test.
*Procedure described in Cancer Chemotherapy Reviews, 7, 167 (1980) and
references cited therein.

Escherichia coli Tol = test: in vitro antibacterial/antifungal (ABF) agar-disk diffusion assay, Escherichia coli Tol; assay type: cell-based; settings: read-out: Inhibition Zone Diameter
Experimental: as §1

[3] = test system: Bacillus subtilis PD04555; test: in vitro antibacterial/antifungal (ABF) agar-disk diffusion assay, Bacillus subtilis; assay type: cell-based; settings: read-out: Inhibition Zone Diameter
Experimental: as §1

[4] = Test 1, read-out: Molar Concentration Required for 50% Inhibition of Growth (ID50)
[5] = Test 2, read-out: Molar Concentration Required for 50% Inhibition of Growth (ID50)
[6] = 25 mg/kg, listed as 5,8-Dichloro-4-hydroxy-1-[ [2-[(2-hydroxyethyl)aminoethyl]amino]-7,10-anthracene
[7] = 50 mg/kg, listed as 5,8-Dichloro-4-hydroxy-1-[ [2-[(2-hydroxyethyl)aminoethyl]amino]-7,10-anthracene
[8] = 100 mg/kg, listed as 5,8-Dichloro-4-hydroxy-1-[ [2-[(2-hydroxyethyl)aminoethyl]amino]-7,10-anthracene

Q: With `CN(C)CCNc1ccc(O)c2c1C(=O)c1c(Cl)ccc(Cl)c1C2=O` [5,8-dichloro-4-hydroxy-1-[2-(dimethylamino)ethyl]amino-9,10-anthracenedione] as the molecule, how does the IC50 (L1210 Leukemia; [4]) read?
A: The IC50 was 91.9 nM.

Q: And the IC50 (L1210 Leukemia; [5])?
A: Its IC50 is 80.9 nM.

Q: What does the source list for `O=C1c2c(O)ccc(NCCNCCO)c2C(=O)c2c(Cl)ccc(Cl)c21` [5,8-dichloro-4-hydroxy-1-[[2-[(2-hydroxyethyl)aminoethyl]amino]]-9,10-anthracenedione]?
A: T/C × 100 (P388 Leukemia; 6.25 mg/kg): 154%; T/C × 100 (P388 Leukemia; 12.5 mg/kg): 146%; cures (P388 Leukemia; 25 mg/kg): cures; T/C × 100 (P388 Leukemia; [6]): 242% and 163%; T/C × 100 (P388 Leukemia; [7]): 175% and 188% and 177%; T/C × 100 (P388 Leukemia; [8]): 235% and 202%; zone of inhibition at 5000 µg/mL (Escherichia coli PD08463): 14 mm; zone of inhibition at 5000 µg/mL [1]: 14 mm; zone of inhibition at 1000 µg/mL ([2]; ATCC21698, 1.0 mg/ml): 14 mm; zone of inhibition at 5000 µg/mL ([2]; ATCC21698, 5.0 mg/ml): 15 mm; T/C × 100 (B16 Melanoma; 6.25 mg/kg): 166%; T/C × 100 (B16 Melanoma; 12.5 mg/kg): 172%; cures (B16 Melanoma; 12.5 mg/kg): cures; T/C × 100 (B16 Melanoma; 20 mg/kg): 224%; cures (B16 Melanoma; 25 mg/kg): cures; T/C × 100 (B16 Melanoma; [6]): 199% and 130%; T/C × 100 (B16 Melanoma; 40 mg/kg): 231%; cures (B16 Melanoma; 40 mg/kg): cures; cures (B16 Melanoma; 50 mg/kg): cures; T/C × 100 (B16 Melanoma; [7]): 252% and 143%; T/C × 100 (B16 Melanoma; 80 mg/kg): 271%; cures (B16 Melanoma; 80 mg/kg): cures; cures (B16 Melanoma; 100 mg/kg): cures; T/C × 100 (B16 Melanoma; [8]): 270% and 191%; T/C × 100 (B16 Melanoma; 160 mg/kg): 326%; T/C × 100 (B16 Melanoma; 200 mg/kg, listed as 5,8-Dichloro-4-hydroxy-1-[ [2-[(2-hydroxyethyl)aminoethyl]amino]-7,10-anthracene): 180% and 172%; T/C × 100 (B16 Melanoma; 400 mg/kg): 190%; IC50 (L1210 Leukemia; [4]): 86.6 nM; IC50 (L1210 Leukemia; [5]): 111 nM; zone of inhibition at 1000 µg/mL (Escherichia coli Tol; 1.0 mg/ml): 15 mm; zone of inhibition at 5000 µg/mL (Escherichia coli Tol; 5.0 mg/ml): 18 mm; zone of inhibition at 1000 µg/mL ([3]; 1.0 mg/ml): 14 mm; zone of inhibition at 5000 µg/mL ([3]; 5.0 mg/ml): 16 mm
